Measured values published in patent US20230355597A1, “COMPOUNDS, COMPOSITIONS, AND METHODS FOR THE TREATMENT AND PREVENTION OF AVIAN PATHOGENIC E. COLI (APEC)” (OHIO STATE INNOVATION FOUNDATION, priority 2018, published 2023).
Values after ≈ are worked out from the molar mass of the structure shown. Marks after values point to notes of the source that are not given here.

Legend:
[1] = test system: APEC O78; assay type: cell-based, avian pathogenic Escherichia coli (APEC)
[2] = test system: APEC O1; assay type: cell-based, avian pathogenic Escherichia coli (APEC); details: APEC O1, M63 media; MIC/MBC
[3] = test system: APEC O2; assay type: cell-based, avian pathogenic Escherichia coli (APEC); details: APEC O2, M63 media; MIC/MBC
[4] = test system: APEC O8; assay type: cell-based, avian pathogenic Escherichia coli (APEC); details: APEC O8, M63 media; MIC/MBC
[5] = test system: APEC O15; assay type: cell-based, avian pathogenic Escherichia coli (APEC); details: APEC O15, M63 media; MIC/MBC
[6] = test system: APEC O18; assay type: cell-based, avian pathogenic Escherichia coli (APEC); details: APEC O18, M63 media; MIC/MBC
[7] = test system: APEC O35; assay type: cell-based, avian pathogenic Escherichia coli (APEC); details: APEC O35, M63 media; MIC/MBC
[8] = test system: APEC O115; assay type: cell-based, avian pathogenic Escherichia coli (APEC); details: APEC O115, M63 media; MIC/MBC
[9] = test system: APEC O109; assay type: cell-based, avian pathogenic Escherichia coli (APEC); details: APEC O109, M63 media; MIC/MBC
[10] = test system: APEC O78-53; assay type: cell-based, avian pathogenic Escherichia coli (APEC); details: APEC O78-53, M63 media; MIC/MBC
[11] = test system: APEC O1-63; assay type: cell-based, avian pathogenic Escherichia coli (APEC); details: APEC O1-63, M63 media; MIC/MBC
[12] = test system: APEC O2-211; assay type: cell-based, avian pathogenic Escherichia coli (APEC); details: APEC O2-211, M63 media; MIC/MBC
[13] = test system: Shiga toxin-producing (STEC) O157 and O26 strains; assay type: cell-based, E. coli; details: 100 µM, M63 media
[14] = test system: biofilm embedded APEC O78; assay: MBEC High-throughput assay; assay type: cell-based, avian pathogenic Escherichia coli (APEC); details: biofilm embedded APEC O78; superscript = multiple of MIC (footnote)
[15] = test system: APEC O78; assay: Confocal microscopy bacterial cytological profiling; assay type: cell-based, avian pathogenic Escherichia coli (APEC); details: 2X MBC
Description: Confocal and scanning electron microscopy. Confocal microscopy was used for bacterial cytological profiling (BCP) to identify the cellular pathways targeted by SMs as described previously. […] After incubation, treated cultures were centrifuged, washed, and resuspended in 100 μL PBS. […] Cultures were then centrifuged, washed, and resuspended in PBS to 1⁄10th volume of the original cultures.

[16] = test system: APEC O78; assay: Loss of 260/280 nm absorbing materials assay; assay type: cell-based, avian pathogenic Escherichia coli (APEC); details: 2X MBC, 1 h, *P<0.05 vs DMSO
[17] = test system: intracellular APEC O78 in Caco-2 cells; assay: Intracellular survival assay (cidal SMs); details: O78, Caco-2, 6 h treatment; superscript = multiple of MIC
[18] = test system: intracellular APEC O78 in HD11 cells; assay: Intracellular survival assay (cidal SMs); details: O78, HD11, 6 h treatment; superscript = multiple of MIC
[19] = test system: intracellular APEC O78 in THP-1 cells; assay: Intracellular survival assay (cidal SMs); details: O78, THP-1, 6 h treatment; superscript = multiple of MIC
[20] = test system: intracellular APEC O2 in Caco-2 cells; assay: Intracellular survival assay (cidal SMs); details: O2, Caco-2, 6 h treatment; superscript = multiple of MIC
[21] = test system: intracellular APEC O2 in HD11 cells; assay: Intracellular survival assay (cidal SMs); details: O2, HD11, 6 h treatment; superscript = multiple of MIC
[22] = test system: intracellular APEC O2 in THP-1 cells; assay: Intracellular survival assay (cidal SMs); details: O2, THP-1, 6 h treatment; superscript = multiple of MIC
[23] = test system: intracellular APEC O1 in Caco-2 cells; assay: Intracellular survival assay (cidal SMs); details: O1, Caco-2, 6 h treatment; superscript = multiple of MIC
[24] = test system: intracellular APEC O1 in HD11 cells; assay: Intracellular survival assay (cidal SMs); details: O1, HD11, 6 h treatment; superscript = multiple of MIC
[25] = test system: intracellular APEC O1 in THP-1 cells; assay: Intracellular survival assay (cidal SMs); details: O1, THP-1, 6 h treatment; superscript = multiple of MIC

**Q.** `COc1ccc(CCN(Cc2cc3c(cc2Cl)OCO3)CC2CCN(C)CC2)cc1` [SM11] was tested. Which “MBC relative to MIC” value ([1]; APEC O78) did it give?
**A.** The value was “identical to MIC”.

**Q.** What about the MIC ([1]; APEC O78, M63 media, MIC/MBC) of the same molecule?
**A.** The MIC was 100 µM (≈ 43.1 µg/mL).

**Q.** And the MBC ([1]; APEC O78, M63 media, cell prints MIC/MBC)?
**A.** The MBC was 100 µM (≈ 43.1 µg/mL).

**Q.** And the MBC [2]?
**A.** Its MBC is 100 µM (≈ 43.1 µg/mL).

**Q.** What about the MIC [2] of the same molecule?
**A.** The MIC was 100 µM (≈ 43.1 µg/mL).

**Q.** And the MBC [3]?
**A.** The MBC was 200 µM (≈ 86.2 µg/mL).

**Q.** And the MIC [3]?
**A.** The MIC was 100 µM (≈ 43.1 µg/mL).

**Q.** What about the MBC [4] of the same molecule?
**A.** Its MBC is 200 µM (≈ 86.2 µg/mL).

**Q.** And the MIC [4]?
**A.** The MIC was 200 µM (≈ 86.2 µg/mL).

**Q.** What about the MBC [5] of the same molecule?
**A.** The MBC was 100 µM (≈ 43.1 µg/mL).

**Q.** And the MIC [5]?
**A.** Its MIC is 100 µM (≈ 43.1 µg/mL).

**Q.** What about the MBC [6] of the same molecule?
**A.** Its MBC is 200 µM (≈ 86.2 µg/mL).

**Q.** And the MIC [6]?
**A.** Its MIC is 200 µM (≈ 86.2 µg/mL).

**Q.** And the MBC [7]?
**A.** The MBC was 200 µM (≈ 86.2 µg/mL).

**Q.** What about the MIC [7] of the same molecule?
**A.** The MIC was 100 µM (≈ 43.1 µg/mL).

**Q.** And the MBC [8]?
**A.** Its MBC is 200 µM (≈ 86.2 µg/mL).

**Q.** And the MIC [8]?
**A.** Its MIC is 200 µM (≈ 86.2 µg/mL).

**Q.** And the MBC [9]?
**A.** Its MBC is 200 µM (≈ 86.2 µg/mL).

**Q.** And the MIC [9]?
**A.** Its MIC is 200 µM (≈ 86.2 µg/mL).

**Q.** What about the MBC [10] of the same molecule?
**A.** The MBC was 200 µM (≈ 86.2 µg/mL).

**Q.** What about the MIC [10] of the same molecule?
**A.** Its MIC is 100 µM (≈ 43.1 µg/mL).

**Q.** And the MBC [11]?
**A.** Its MBC is 200 µM (≈ 86.2 µg/mL).

**Q.** And the MIC [11]?
**A.** The MIC was 100 µM (≈ 43.1 µg/mL).

**Q.** What about the MBC [12] of the same molecule?
**A.** The MBC was 100 µM (≈ 43.1 µg/mL).

**Q.** What about the MIC [12] of the same molecule?
**A.** The MIC was 100 µM (≈ 43.1 µg/mL).

**Q.** And the “activity against STEC O157 and O26 strains” value [13]?
**A.** The value was “not cidal”.

**Q.** And the MBEC [14]?
**A.** Its MBEC is 400^d µM.

**Q.** What about the “cytological profile (confocal, FM4-64 / SYTO-9)” value [15] of the same molecule?
**A.** Its value is “membrane pore formers”.

**Q.** And the “Absorbance 260” value ([16]; 260 nm absorbing material in supernatant)?
**A.** Its value is 4.00*.

**Q.** And the “Absorbance 280” value ([16]; 280 nm absorbing material in supernatant)?
**A.** Its value is 2.89*.

**Q.** What about the “SMs intracellular APEC clearance concentration” value [17] of the same molecule?
**A.** Its value is 100^a µM.

**Q.** What about the “SMs intracellular APEC clearance concentration” value [18] of the same molecule?
**A.** Its value is 100^a µM.

**Q.** And the “SMs intracellular APEC clearance concentration” value [19]?
**A.** The value was 100^a µM.

**Q.** And the “SMs intracellular APEC clearance concentration” value [20]?
**A.** Its value is 200^b µM.

**Q.** And the “SMs intracellular APEC clearance concentration” value [21]?
**A.** The value was 200^b µM.

**Q.** What about the “SMs intracellular APEC clearance concentration” value [22] of the same molecule?
**A.** The value was 100^a µM.

**Q.** What about the “SMs intracellular APEC clearance concentration” value [23] of the same molecule?
**A.** The value was greater than 200 µM.

**Q.** And the “SMs intracellular APEC clearance concentration” value [24]?
**A.** The value was 200^b µM.

**Q.** And the “SMs intracellular APEC clearance concentration” value [25]?
**A.** The value was greater than 200 µM.
